{
  "source": "paper PMC4855506",
  "about": "(Journal of molecular and cellular cardiology, 2011)",
  "experiment": "coupled proteolysis-cGMP elevation bioassay with protease inhibitors",
  "format": "in vitro ADME, human",
  "key": {"[1]": {"settings": "Fig. 2B, 30 min, 37 °C, human kidney membranes, 293-GC-A cells, n=4"}},
  "data": [
    {"substance": "B-type natriuretic peptide [BNP]", "values": [
      {"measurement": "effect of leupeptin on degradation", "setting": "[1]", "value": "completely blocked the degradation"},
      {"measurement": "effect of phosphoramidon on degradation", "setting": "[1]", "value": "failed to preserve the activity"},
      {"measurement": "effect of boiling the membranes before peptide exposure", "setting": "Fig. 2B, 30 min, 37 °C, 293-GC-A cells, n=4", "value": "blocked inactivation"}
    ]},
    {"substance": "C-type natriuretic peptide [CNP]", "values": [
      {"measurement": "effect of boiling the membranes prior to peptide exposure", "setting": "Fig. 2A, 30 min, 37 °C, boiled human kidney membranes, n=8", "value": "abolished membrane-dependent inactivation"},
      {"measurement": "effect of actinonin together with phosphoramidon", "setting": "Fig. 2A, 30 min, 37 °C, human kidney membranes, n=8", "value": "did not further increase activity above that seen with phosphoramidon alone"},
      {"measurement": "activity loss blocked by phosphoramidon", "setting": "Fig. 2A, NEP inhibitor phosphoramidon, 30 min, 37 °C, human kidney membranes, n=8", "value": "about 40%"},
      {"measurement": "effect of actinonin alone on inactivation", "setting": "Fig. 2A, meprin inhibitor actinonin, 30 min, 37 °C, human kidney membranes, n=8", "value": "did not block inactivation"},
      {"measurement": "effect of leupeptin on inactivation", "setting": "Fig. 2A, serine-threonine-cysteine protease inhibitor leupeptin, 30 min, 37 °C, human kidney membranes, n=8", "value": "did not statistically increase the bioactivity"},
      {"measurement": "increase of bioactivity on inhibition of NEP in kidney membranes", "setting": "phosphoramidon, human kidney membranes, 30 min, 37 °C (Fig. 2A)", "value": 8, "unit": "fold"}
    ]},
    {"substance": "Dendroaspis natriuretic peptide [DNP]", "values": [
      {"measurement": "activity in the presence of phosphoramidon", "setting": "Fig. 2C, 120 min, 37 °C, human kidney membranes, human GC-A read-out, n=4", "value": "significantly less than control values"}
    ]}
  ]
}
